Reference: patent US10000516B2 (priority 2015, dated 2018)

These compounds were tested against T1, Human Factor D (Homo sapiens, UniProt P00746) (assay: Human Factor D assay (Z-L-Lys-SBzl/DTNB, absorbance at 405 nm)). Details: not given.
T1 construct: purified from human serum; purchased Complement Technology, Inc; host or cells: human serum (natural protein, not recombinant)
T1 sequence (P00746 26-253): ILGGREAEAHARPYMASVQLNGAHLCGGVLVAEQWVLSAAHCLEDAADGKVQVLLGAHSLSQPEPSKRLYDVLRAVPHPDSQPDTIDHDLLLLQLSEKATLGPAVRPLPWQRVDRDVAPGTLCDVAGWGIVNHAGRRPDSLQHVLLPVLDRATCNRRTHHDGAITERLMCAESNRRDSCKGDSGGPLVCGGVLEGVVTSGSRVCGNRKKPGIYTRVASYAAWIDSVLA
Type: biochemical
Method: Example 44. Human Factor D Assay
Human Factor D (purified from human serum, Complement Technology, Inc.) at 80 nM final concentration was incubated with test compound at various concentrations for 5 minutes at room temperature in 50 mM Tris, 1M NaCl, pH 7.5. A synthetic substrate Z-L-Lys-SBzl and DTNB (Ellman's reagent) are added to final concentrations of 100 µM each. Absorbance at 405 nm (A405) was recorded at 30 second intervals for 30 minutes using a microplate spectrophotometer. IC50 values are calculated by nonlinear regression of complement Factor D reaction rates as a function of test compound concentration.
For `CC(=O)c1cn(CC(=O)N2[C@@H]3CCC[C@@H]3C[C@H]2C(=O)NCc2cccc(Cl)c2F)c2cc(P(=O)(O)O)ccc12` [Compound 7, 3-acetyl-1-(2-((2S,3aR,6aR)-2-(3-chloro-2-fluorobenzylcarbamoyl)hexahydrocyclopenta [b]pyrrol-1(2H)-yl)-2-oxoethyl)-1H-indol-6-ylphosphonic acid], the IC50 was under 1 µM.
`CCCCOP(=O)(OCCCC)c1ccc2c(C(C)=O)cn(CC(=O)N3C[C@H](F)C[C@H]3C(=O)NCc3cccc(Cl)c3F)c2c1` [Compound 20, dibutyl 3-acetyl-1-(2-((2S,4R)-2-(3-chloro-2-fluorobenzylcarbamoyl)-4-fluoropyrrolidin-1-yl)-2-oxoethyl)-1H-indol-6-ylphosphonate] gave an IC50 of under 1 µM.

Same assay, conditions: Table 1; Human Factor D 80 nM, purified from human serum; substrate Z-L-Lys-SBzl; read-out: IC50
Compound `CCOP(=O)(OCC)c1ccc2c(C(C)=O)cn(CC(=O)N3C[C@H](F)C[C@H]3C(=O)NCc3cccc(Cl)c3F)c2c1` [Compound 1, diethyl 3-acetyl-1-(2-((2S,4R)-2-(3-chloro-2-fluorobenzylcarbamoyl)-4-fluoropyrrolidin-1-yl)-2-oxoethyl)-1H-indol-6-ylphosphonate] has an IC50 of under 1 µM.
In the case of `CCOP(=O)(O)c1ccc2c(C(C)=O)cn(CC(=O)N3C[C@H](F)C[C@H]3C(=O)NCc3cccc(Cl)c3F)c2c1` [Compound 2, ethyl hydrogen 3-acetyl-1-(2-((2S,4R)-2-(3-chloro-2-fluorobenzylcarbamoyl)-4-fluoropyrrolidin-1-yl)-2-oxoethyl)-1H-indol-6-ylphosphonate], the IC50 is reported as under 1 µM.
For `CC(=O)c1cn(CC(=O)N2C[C@H](F)C[C@H]2C(=O)NCc2cccc(Cl)c2F)c2cc(P(=O)(O)O)ccc12` [Compound 3, 3-acctyl-1-(2-((2S,4R)-2-(3-chloro-2-fluorobenzylcarbamoyl)-4-fluoropyrrolidin-1-yl)-2-oxoethyl)-1H-indol-6-ylphosphonic acid], the IC50 was under 1 µM.
`CC(=O)c1cn(CC(=O)N2C[C@H](F)C[C@H]2C(=O)NCc2cccc(Cl)c2F)c2cc(P(=O)(OCOC(=O)OC(C)C)OCOC(=O)OC(C)C)ccc12` [Compound 4, ((3-acetyl-1-(2-((2S,4R)-2-(3-chloro-2-fluorobenzylcarbamoyl)-4-fluoropyrrolidin-1-yl)-2-oxoethyl)-1H-indol-6-yl)phosphoryl)bis(oxy) bis(methylene) isopropyl dicarbonate] gave an IC50 of under 1 µM.
`CCOP(=O)(OCOC(=O)OC(C)C)c1ccc2c(C(C)=O)cn(CC(=O)N3C[C@H](F)C[C@H]3C(=O)NCc3cccc(Cl)c3F)c2c1` (stereo partly drawn) [Compound 6, ((3-acetyl-1-(2-((2S,4R)-2-(3-chloro-2-fluorobenzylcarbamoyl)-4-fluoropyrrolidin-1-yl)-2-oxoethyl)-1H-indol-6-yl)(ethoxy)phosphoryloxy) methyl isopropyl carbonate] gave an IC50 of under 1 µM.
With `CCOP(=O)(OCC)c1ccc2c(c1)c(C(C)=O)cn2CC(=O)N1C[C@H](F)C[C@H]1C(=O)NCc1cccc(Cl)c1F` [Compound 8, diethyl 3-acetyl-1-(2-((2S,4R)-2-(3-chloro-2-fluorobenzylcarbamoyl)-4-fluoropyrrolidin-1-yl)-2-oxoethyl)-1H-indol-5-ylphosphonate] the IC50 was under 1 µM.
For `CCOP(=O)(O)c1ccc2c(c1)c(C(C)=O)cn2CC(=O)N1C[C@H](F)C[C@H]1C(=O)NCc1cccc(Cl)c1F` [Compound 9, ethyl hydrogen 3-acetyl-1-(2-((2S,4R)-2-(3-chloro-2-fluorobenzylcarbamoyl)-4-fluoropyrrolidin-1-yl)-2-oxoethyl)-1H-indol-5-ylphosphonate], the IC50 was over 10 µM.
`CC(=O)c1cn(CC(=O)N2C[C@H](F)C[C@H]2C(=O)NCc2cccc(Cl)c2F)c2ccc(P(=O)(O)O)cc12` [Compound 10, 3-acetyl-1-(2-((2S,4R)-2-(3-chloro-2-fluorobenzylcarbamoyl)-4-fluoropyrrolidin-1-yl)-2-oxoethyl)-1H-indol-5-ylphosphonic acid] was tested, and the IC50 was under 1 µM.
`CCOC(=O)c1nn(CC(=O)N2C[C@H](F)C[C@H]2C(=O)NCc2cccc(Cl)c2F)c2cc(P(=O)(OCC)OCC)ccc12` [Compound 11, ethyl 1-(2-((2S,4R)-2-(3-chloro-2-fluorobenzylcarbamoyl)-4-fluoropyrrolidin-1-yl)-2-oxoethyl)-6-(diethoxyphosphoryl)-1H-indazole-3-carboxylate] was tested, and the IC50 was over 10 µM.
Work on `CCOP(=O)(OCC)c1ccc2c(C(=O)O)nn(CC(=O)N3C[C@H](F)C[C@H]3C(=O)NCc3cccc(Cl)c3F)c2c1` [Compound 12, 1-(2-((2S,4R)-2-(3-chloro-2-fluorobenzylcarbamoyl)-4-fluoropyrrolidin-1-yl)-2-oxoethyl)-6-(diethoxyphosphoryl)-1H-indazole-3-carboxylic acid] yielded an IC50 of over 10 µM.
For `CCOP(=O)(OCC)c1ccc2c(C(=O)OC)cn(CC(=O)N3C[C@H](F)C[C@H]3C(=O)NCc3cccc(Cl)c3F)c2c1` [Compound 13, methyl 1-(2-((2S,4R)-2-(3-chloro-2-fluorobenzylcarbamoyl)-4-fluoropyrrolidin-1-yl)-2-oxoethyl)-6-(diethoxyphosphoryl)-1H-indole-3-carboxylate], the IC50 was under 1 µM.
With `COC(=O)c1cn(CC(=O)N2C[C@H](F)C[C@H]2C(=O)NCc2cccc(Cl)c2F)c2cc(P(=O)(O)O)ccc12` [Compound 14, 1-(2-((2S,4R)-2-(3-chloro-2-fluorobenzylcarbamoyl)-4-fluoropyrrolidin-1-yl)-2-oxoethyl)-3-(methoxycarbonyl)-1H-indol-6-ylphosphonic acid] the IC50 was under 1 µM.
`CCOP(=O)(OCC)c1ccc2c(C(N)=O)cn(CC(=O)N3C[C@H](F)C[C@H]3C(=O)NCc3cccc(Cl)c3F)c2c1` [Compound 15, diethyl 3-carbamoyl-1-(2-((2S,4R)-2-(3-chloro-2-fluorobenzylcarbamoyl)-4-fluoropyrrolidin-1-yl)-2-oxoethyl)-1H-indol-6-ylphosphonate] showed an IC50 of under 1 µM.
For `NC(=O)c1cn(CC(=O)N2C[C@H](F)C[C@H]2C(=O)NCc2cccc(Cl)c2F)c2cc(P(=O)(O)O)ccc12` [Compound 16, 3-carbamoyl-1-(2-((2S,4R)-2-(3-chloro-2-fluorobenzylcarbamoyl)-4-fluoropyrrolidin-1-yl)-2-oxoethyl)-1H-indol-6-ylphosphonic acid], the IC50 was under 1 µM.
In the case of `CCOP(=O)(OCC)c1ccc2c(C(N)=O)nn(CC(=O)N3C[C@H](F)C[C@H]3C(=O)NCc3cccc(Cl)c3F)c2c1` [Compound 17, diethyl 3-carbamoyl-1-(2-((2S,4R)-2-(3-chloro-2-fluorobenzylcarbamoyl)-4-fluoropyrrolidin-1-yl)-2-oxoethyl)-1H-indazol-6-ylphosphonate], the IC50 is reported as under 1 µM.
Work on `NC(=O)c1nn(CC(=O)N2C[C@H](F)C[C@H]2C(=O)NCc2cccc(Cl)c2F)c2cc(P(=O)(O)O)ccc12` [Compound 18, 3-carbamoyl-1-(2-((2S,4R)-2-(3-chloro-2-fluorobenzylcarbamoyl)-4-fluoropyrrolidin-1-yl)-2-oxoethyl)-1H-indazol-6-ylphosphonic acid] yielded an IC50 of under 1 µM.
`CC(=O)c1cn(CC(=O)N2C[C@H](F)C[C@H]2C(=O)NCc2cccc(Cl)c2F)c2cc(P(=O)(OCC(F)(F)F)OCC(F)(F)F)ccc12` [Compound 19, bis(2,2,2-trifluoroethyl) 3-acetyl-1-(2-((2S,4R)-2-(3-chloro-2-fluorobenzylcarbamoyl)-4-fluoropyrrolidin-1-yl)-2-oxoethyl)-1H-indol-6-ylphosphonate] gave an IC50 of under 1 µM.
For `CCCCOP(=O)(O)c1ccc2c(C(C)=O)cn(CC(=O)N3C[C@H](F)C[C@H]3C(=O)NCc3cccc(Cl)c3F)c2c1` [Compound 21, butyl hydrogen 3-acetyl-1-(2-((2S,4R)-2-(3-chloro-2-fluorobenzylcarbamoyl)-4-fluoropyrrolidin-1-yl)-2-oxoethyl)-1H-indol-6-ylphosphonate], the IC50 was under 1 µM.
`CC(=O)c1cn(CC(=O)N2C[C@H](F)C[C@H]2C(=O)NCc2cccc(Cl)c2F)c2cc(P(=O)(O)OCOC(=O)OC(C)C)ccc12` [Compound 22, ((3-acetyl-1-(2-((2S,4R)-2-(3-chloro-2-fluorobenzylcarbamoyl)-4-fluoropyrrolidin-1-yl)-2-oxoethyl)-1H-indol-6-yl)(hydroxy)phosphoryloxy) methyl isopropyl carbonate] showed an IC50 of under 1 µM.
For `CCOP(=O)(c1ccccc1)c1ccc2c(C(C)=O)cn(CC(=O)N3C[C@H](F)C[C@H]3C(=O)NCc3cccc(Cl)c3F)c2c1` (stereo partly drawn) [Compound 23, ethyl 3-acetyl-1-(2-((2S,4R)-2-(3-chloro-2-fluorobenzylcarbamoyl)-4-fluoropyrrolidin-1-yl)-2-oxoethyl)-1H-indol-6-yl(phenyl)phosphinate], the IC50 was under 1 µM.
Compound `CCOP(=O)(CC)c1ccc2c(C(C)=O)cn(CC(=O)N3C[C@H](F)C[C@H]3C(=O)NCc3cccc(Cl)c3F)c2c1` (stereo partly drawn) [Compound 24, ethyl 3-acetyl-1-(2-((2S,4R)-2-(3-chloro-2-fluorobenzylcarbamoyl)-4-fluoropyrrolidin-1-yl)-2-oxoethyl)-1H-indol-6-yl(ethyl)phosphinate] has an IC50 of under 1 µM.
With `CC(=O)c1cn(CC(=O)N2C[C@H](F)C[C@H]2C(=O)NCc2cccc(Cl)c2F)c2cc(P(=O)(O)c3ccccc3)ccc12` [Compound 25, 3-acetyl-1-(2-((2S,4R)-2-(3-chloro-2-fluorobenzylcarbamoyl)-4-fluoropyrrolidin-1-yl)-2-oxoethyl)-1H-indol-6-yl(phenyl)phosphinic acid] the IC50 was under 1 µM.
For `CC(=O)c1cn(CC(=O)N2C[C@H](F)C[C@H]2C(=O)NCc2cccc(Cl)c2F)c2cc(P(=O)(OCOC(=O)C(C)(C)C)OCOC(=O)C(C)(C)C)ccc12` [Compound 26, ((3-acetyl-1-(2-((2S,4R)-2-(3-chloro-2-fluorobenzylcarbamoyl)-4-fluoropyrrolidin-1-yl)-2-oxoethyl)-1H-indol-6-yl)phosphoryl)bis(oxy)bis (methylene) bis(2,2-dimethylpropanoate)], the IC50 was under 1 µM.
